The values below come from US20250361268A1, “NOVEL ANTI-INFLAMMATORY PEPTIDE AND USE THEREOF” (NOVACELL TECHNOLOGY INC., priority 2022, published 2025).

Peptide text beside a SMILES is read from it. Bounds are passed on as bounds.

One assay addresses T1, FPR2 (Homo sapiens, UniProt P25090).
T1 construct: expressed in transfected cells; host or cells: RBL cells (RBL-FPR2)
T1 sequence (P25090 1-351): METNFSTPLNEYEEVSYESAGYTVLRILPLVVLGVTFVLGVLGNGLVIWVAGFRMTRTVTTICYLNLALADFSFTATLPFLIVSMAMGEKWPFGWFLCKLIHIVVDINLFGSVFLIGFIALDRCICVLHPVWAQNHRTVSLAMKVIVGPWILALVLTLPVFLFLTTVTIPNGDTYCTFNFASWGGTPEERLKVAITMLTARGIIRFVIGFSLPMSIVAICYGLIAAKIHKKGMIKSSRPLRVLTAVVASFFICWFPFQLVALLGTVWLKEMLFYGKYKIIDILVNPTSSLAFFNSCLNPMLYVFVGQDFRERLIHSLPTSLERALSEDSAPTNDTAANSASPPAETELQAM
The experiment in a line: Change in calcium activity by peptide (Fura-2) in RBL cells overexpressing FPR2. The assay is classed as cell-based. The settings on record: calcium activity (Fura-2), graded per Table 3, read-out: EC50 for [Ca^2+] FPR2. The method, then:
The present inventors observed changes in calcium ion permeability to confirm whether the immunomodulatory peptide candidates prepared according to one example of the present invention activate the immune function of a living organism. Specifically, the concentration of calcium ions in cells was measured to confirm whether the peptides activate FPR2.
A peptide dissolved in water or 50% DMSO at a concentration of 0.5 mM was prepared by diluting it to an appropriate concentration in HBSS (Sigma, #55037C)+20 mM HEPES buffer.
In this experiment, the cells were cultured in DMEM (Lonza, #BE12-604F) containing 10% fetal bovine serum (FBS) and 1% penicillin-streptomycin under conditions of 37° C. and 5% CO2.
(§1) The day before measuring calcium activity, the cells were prepared at 3×10^5 cells per well in a 96-well flat clear bottom black plate (Costar, #3603). The prepared cells were treated with a Fura-2 QBT calcium kit (component A; Molecular Devices, #8197) at the same volume per well. After incubation at 37° C. for 1 hour, the cells were incubated in a dark room at room temperature for 30 minutes. After the Fura-2-treated cells, the prepared peptide, and a dedicated tip were placed at each section of FlexStation 3 Multi-Mode Microplate Reader (Molecular Devices, #Flex3), changes in calcium activity caused by the peptides were measured using SoftMax Pro 7 Software (Molecular Devices, #FLEX3-INSTALL-OS).

In the next assay the target is T2, FPR1 (Homo sapiens, UniProt P21462).
T2 sequence (P21462 1-350): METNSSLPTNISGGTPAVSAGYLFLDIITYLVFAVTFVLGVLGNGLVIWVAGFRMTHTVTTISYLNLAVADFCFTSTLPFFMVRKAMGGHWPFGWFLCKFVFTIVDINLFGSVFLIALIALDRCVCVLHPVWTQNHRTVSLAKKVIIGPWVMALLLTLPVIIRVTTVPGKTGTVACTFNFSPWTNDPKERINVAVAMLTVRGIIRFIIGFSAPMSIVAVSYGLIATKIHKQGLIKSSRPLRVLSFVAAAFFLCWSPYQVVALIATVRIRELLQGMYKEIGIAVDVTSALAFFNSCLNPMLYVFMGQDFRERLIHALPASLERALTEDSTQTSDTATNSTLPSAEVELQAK
The experiment in a line: Change in calcium activity by peptide, FPR1 activation effect. The assay is classed as cell-based. Particulars: calcium activity (Fura-2), graded per Table 3, read-out: EC50 for [Ca^2+] FPR1. As for the experimental part:
as §1, with “#FLEX3-INSTALL-OS). […]” for “#FLEX3-INSTALL-OS).”

Take `CCCCCCCC(=O)N[C@@H](CCCNC(=N)N)C(=O)N[C@@H](CCSC)C(=O)N[C@@H](CCCNC(=N)N)C(=O)N[C@@H](Cc1ccc(O)cc1)C(=O)N[C@@H](CCCCN)C(=O)N[C@H](C(=O)N[C@H](CCSC)C(N)=O)C(C)C` [Peptide 8] (HELM PEPTIDE1{[CCCCCCCC(=O)[*:2]].R.M.R.Y.K.V.[dM].[am]}$$$$V2.0): the values for the EC50 at FPR2 and on FPR1 were 11 to 100 nM and above 10000 nM, respectively.

Regarding `CSCC[C@@H](NC(=O)[C@H](Cc1ccc(O)cc1)NC(=O)[C@H](CC(N)=O)NC(=O)[C@H](Cc1ccc(O)cc1)NC(=O)[C@H](CCCNC(=N)N)NC(=O)[C@H](Cc1c[nH]c2ccccc12)NC(=O)[C@@H](N)CCCNC(=N)N)C(N)=O` [Peptide 155] (HELM PEPTIDE1{R.W.R.Y.N.Y.[dM].[am]}$$$$V2.0), the EC50 at FPR2 was 11 to 100 nM; on FPR1, above 10000 nM.

On to `CCCC(=O)N[C@@H](CCCCN)C(=O)N[C@@H](CCSC)C(=O)N[C@@H](CCCCN)C(=O)N[C@@H](Cc1ccc(O)cc1)C(=O)N[C@@H](CCCCN)C(=O)N[C@H](C(=O)N[C@H](CCSC)C(N)=O)C(C)C` [Peptide 11] (HELM PEPTIDE1{[CCCC(=O)[*:2]].K.M.K.Y.K.V.[dM].[am]}$$$$V2.0), for which the concentration giving a half-maximal response (EC50) on FPR2 is below 10 nM; on FPR1 it was above 10000 nM.

As to `CCCC(=O)N[C@@H](Cc1c[nH]cn1)C(=O)N[C@@H](CCSC)C(=O)N[C@@H](CCCCN)C(=O)N[C@@H](Cc1ccc(O)cc1)C(=O)N[C@@H](CCCCN)C(=O)N[C@H](C(=O)N[C@H](CCSC)C(N)=O)C(C)C` [Peptide 23] (HELM PEPTIDE1{[CCCC(=O)[*:2]].H.M.K.Y.K.V.[dM].[am]}$$$$V2.0), the concentration for a half-maximal effect (EC50) at FPR2 is below 10 nM; on FPR1, above 10000 nM.

For `CSCC[C@@H](NC(=O)[C@@H]1CCCN1C(=O)[C@H](Cc1c[nH]c2ccccc12)NC(=O)[C@H](Cc1ccc(O)cc1)NC(=O)[C@H](CCCNC(=N)N)NC(=O)[C@H](Cc1c[nH]c2ccccc12)NC(=O)[C@H](CCCNC(=N)N)NC(C)=O)C(N)=O` [Peptide 117] (HELM PEPTIDE1{[ac].R.W.R.Y.W.P.[dM].[am]}$$$$V2.0), the 50% effective concentration (EC50) at FPR2 was below 10 nM; at FPR1, 101 to 1000 nM.

Regarding `CSCC[C@H](N)C(=O)N[C@@H](CCCNC(=N)N)C(=O)N[C@@H](Cc1ccc(O)cc1)C(=O)N[C@@H](CCCCN)C(=O)N[C@@H](Cc1ccc(O)cc1)C(=O)N[C@H](CCSC)C(N)=O` [Peptide 41] (HELM PEPTIDE1{M.R.Y.K.Y.[dM].[am]}$$$$V2.0), the EC50 at FPR2 was below 10 nM; on FPR1, above 10000 nM.

`CSCC[C@H](NC(C)=O)C(=O)N[C@@H](CCCNC(=N)N)C(=O)N[C@@H](Cc1ccc(O)cc1)C(=O)N[C@@H](Cc1ccc(O)cc1)C(=O)N[C@@H](Cc1ccc(O)cc1)C(=O)N[C@H](CCSC)C(N)=O` [Peptide 126] (HELM PEPTIDE1{[ac].M.R.Y.Y.Y.[dM].[am]}$$$$V2.0): the EC50 on FPR2 is 11 to 100 nM; at FPR1 it was above 10000 nM.

`CSCC[C@@H](NC(=O)[C@@H](NC(=O)[C@H](CC(N)=O)NC(=O)[C@H](Cc1ccc(O)cc1)NC(=O)[C@H](CCCNC(=N)N)NC(=O)[C@H](Cc1c[nH]c2ccccc12)NC(=O)[C@@H](N)CCCNC(=N)N)C(C)C)C(N)=O` [Peptide 159] (HELM PEPTIDE1{R.W.R.Y.N.V.[dM].[am]}$$$$V2.0): the EC50 fell in the range of 11 to 100 nM at FPR2 and 1000 to 10000 nM at FPR1.

On to `CSCC[C@H](N)C(=O)N[C@@H](CCCNC(=N)N)C(=O)N[C@@H](Cc1ccc(O)cc1)C(=O)N[C@@H](Cc1c[nH]c2ccccc12)C(=O)N1CCC[C@H]1C(=O)N[C@H](CCSC)C(N)=O` [Peptide 110] (HELM PEPTIDE1{M.R.Y.W.P.[dM].[am]}$$$$V2.0), for which the figures for the 50% effective concentration (EC50) at FPR2 and on FPR1 were below 10 nM and 101 to 1000 nM, respectively.

In the case of `CCCCCCCC(=O)N[C@@H](CCSC)C(=O)N[C@@H](CCCNC(=N)N)C(=O)N[C@@H](Cc1ccc(O)cc1)C(=O)N[C@@H](CCCCN)C(=O)N1CCC[C@H]1C(=O)N[C@H](CCSC)C(N)=O` [Peptide 57] (HELM PEPTIDE1{[CCCCCCCC(=O)[*:2]].M.R.Y.K.P.[dM].[am]}$$$$V2.0), the half-maximal effective concentration (EC50) on FPR2 was below 10 nM; on FPR1, above 10000 nM.

As to `CCCC(=O)N[C@@H](Cc1c[nH]cn1)C(=O)N[C@@H](CCSC)C(=O)N[C@@H](CCCNC(=N)N)C(=O)N[C@@H](Cc1ccc(O)cc1)C(=O)N[C@@H](Cc1c[nH]c2ccccc12)C(=O)N[C@@H](Cc1ccc(O)cc1)C(=O)N[C@H](CCSC)C(N)=O` [Peptide 93] (HELM PEPTIDE1{[CCCC(=O)[*:2]].H.M.R.Y.W.Y.[dM].[am]}$$$$V2.0), the EC50 on FPR2 was below 10 nM; at FPR1 it was 1000 to 10000 nM.

For the molecule `CC[C@H](C)[C@H](NC(=O)[C@H](CCCNC(=N)N)NC(=O)[C@H](Cc1ccc(O)cc1)NC(=O)[C@H](CCCNC(=N)N)NC(=O)[C@H](Cc1c[nH]c2ccccc12)NC(=O)[C@@H](N)CCCNC(=N)N)C(=O)N[C@H](CCSC)C(N)=O` [Peptide 152] (HELM PEPTIDE1{R.W.R.Y.R.I.[dM].[am]}$$$$V2.0), the EC50 at FPR2 was 11 to 100 nM; on FPR1, above 10000 nM.

Take `CSCC[C@@H](NC(=O)[C@@H](NC(=O)[C@H](CC(C)C)NC(=O)[C@H](Cc1ccc(O)cc1)NC(=O)[C@H](CCCNC(=N)N)NC(=O)[C@H](Cc1c[nH]c2ccccc12)NC(=O)[C@@H](N)CCCNC(=N)N)C(C)C)C(N)=O` [Peptide 158] (HELM PEPTIDE1{R.W.R.Y.L.V.[dM].[am]}$$$$V2.0): the EC50 on FPR2 lay within 11 to 100 nM; on FPR1 it was 1000 to 10000 nM.

As to `CSCC[C@@H](NC(=O)[C@@H]1CCCN1C(=O)[C@H](Cc1ccc(O)cc1)NC(=O)[C@H](Cc1ccc(O)cc1)NC(=O)[C@H](CCCNC(=N)N)NC(=O)[C@H](Cc1c[nH]c2ccccc12)NC(C)=O)C(N)=O` [Peptide 122] (HELM PEPTIDE1{[ac].W.R.Y.Y.P.[dM].[am]}$$$$V2.0), the concentration for a half-maximal effect (EC50) at FPR2 was below 10 nM; at FPR1, 101 to 1000 nM.

`CCCC(=O)N[C@@H](CCSC)C(=O)N[C@@H](CCCNC(=N)N)C(=O)N[C@@H](Cc1ccc(O)cc1)C(=O)N[C@@H](CCCCN)C(=O)N[C@@H](Cc1ccc(O)cc1)C(=O)N[C@H](CCSC)C(N)=O` [Peptide 43] (HELM PEPTIDE1{[CCCC(=O)[*:2]].M.R.Y.K.Y.[dM].[am]}$$$$V2.0): the half-maximal effective concentration (EC50) was 11 to 100 nM on FPR2 and above 10000 nM at FPR1.

In the case of `CCCCCCCC(=O)N[C@@H](CCSC)C(=O)N[C@@H](CCCNC(=N)N)C(=O)N[C@@H](Cc1ccc(O)cc1)C(=O)N[C@@H](Cc1c[nH]c2ccccc12)C(=O)N[C@@H](Cc1ccc(O)cc1)C(=O)N[C@H](CCSC)C(N)=O` [Peptide 88] (HELM PEPTIDE1{[CCCCCCCC(=O)[*:2]].M.R.Y.W.Y.[dM].[am]}$$$$V2.0), the EC50 on FPR2 is 11 to 100 nM; at FPR1, above 10000 nM.

As for `CCCCCCCC(=O)N[C@@H](CCSC)C(=O)N[C@@H](CCCNC(=N)N)C(=O)N[C@@H](Cc1ccc(O)cc1)C(=O)N[C@@H](CCCCN)C(=O)N[C@H](C(=O)N[C@H](CCSC)C(N)=O)C(C)C` [Peptide 16] (HELM PEPTIDE1{[CCCCCCCC(=O)[*:2]].M.R.Y.K.V.[dM].[am]}$$$$V2.0), the EC50 on FPR2 was 11 to 100 nM; at FPR1, above 10000 nM.

For the molecule `CSCC[C@@H](NC(=O)[C@H](Cc1ccc(O)cc1)NC(=O)[C@H](CCCCN)NC(=O)[C@H](Cc1ccc(O)cc1)NC(=O)[C@H](CCCCN)NC(=O)[C@H](Cc1c[nH]c2ccccc12)NC(=O)[C@H](CCCCN)NC(C)=O)C(N)=O` [Peptide 36] (HELM PEPTIDE1{[ac].K.W.K.Y.K.Y.[dM].[am]}$$$$V2.0), the EC50 at FPR2 was below 10 nM; at FPR1, above 10000 nM.

A word on the EC50: it is the midpoint of the concentration-response curve.
